Values of other authors as cited in patent publication US20260125680A1, “COMPOSITIONS AND METHODS FOR IMMUNE CHECKPOINT INHIBITION” (The General Hospital Corporation, priority 2018, published 2026).

What was measured:
pancreatic cancer = settings: monotherapy
bladder cancer = settings: confirmatory trial

| Substance | response (pancreatic cancer) | primary endpoint of overall survival (bladder cancer) |
| --- | --- | --- |
| Ipilimumab: anti-CTLA-4 | ineffective with no responders | – |
| atezolizumab: FDA approved PD-L1 inhibitor | – | failed to achieve its primary endpoint |
